Source: US20230103704A1, “HUMAN ANTI-IN[…] FOR THE […] OF IN[…] ISSUES” (priority 2020, published 2023)
Values joined by “and” are separate entries in the source; they are usually repeats but may differ in a detail not shown here. Equal values may be shown once. “Also recorded” adds a separate entry of the source. Marks after values point to notes of the source that are not given here.

Legend:
[1] = Aviptadil aerosol from M-neb dose+ MN-300/8 tested with COPLEY next generation impactor; assay type: physicochemical
Procedure: Using the M-neb® dose^+ mesh nebulizer MN-300/8 and the respective mouthpiece, Aviptadil has been tested with the COPLEY next generation impactor (NGI). The mass median aerodynamic diameter (MMD) of Aviptadil dissolved in 0.9% NaCl was 3.3-3.5 μm per emitted particle. The number of those particles <5 μm=85.70%, and the dose delivered at the mouthpiece was 90.2% of the tested dosages.
Aviptadil has been tested in 0.9% NaCl solution at different drug concentrations (35 μg/ml, 70 μg/ml, 140 μg/ml, 200 μg/ml, 250 μg/ml, 400 μg/ml).

ARDS = conditions: systemic administration, cited from earlier work
[2] = assay type: physicochemical
Procedure: Aviptadil can be obtained, e.g., from Bachem AG, Bubendorf, Switzerland, in GMP quality.
The experimental procedure was carried out pursuant to Ph. Eur. 2.9.44 (Preparations for Nebulisation: Characterisation). A cascade impactor (Next Generation Impactor (NGI), Copley Scientific Ltd., Nottingham, UK) was used to determine the respective percentage for each fraction of the nebulized particles.
The thus generated aerosol was delivered to the cascade impactor by means of a mouthpiece (SK-211, NEBU-TEC, Eisenfeld, Germany).
The nebulization chamber (yellow stamp, 250 μl liquid discharge) was filled. The puff profile configured at the breath simulator was chosen in such a way that a correct simulation of inhalation by means of the nebulizer was ensured. The corresponding time was recorded.
Single values obtained for each cascade were added. […] MMAD, FPF and FPM were calculated from the obtained values: […]

CoViD-19 = test: Individual curing attempts for CoViD-19 with Aviptadil, oxygen demand; assay type: in vivo, human
Procedure: Example 18: Individual Curing Attempts for the Therapy of CoViD-19 with Aviptadil 3×66 μg Daily Per Inhalationem (Oxygen Demand Via Oxygen Nasal Cannula in L Per Minute (l/min))

[3] = may be as low as; cited from earlier work
[4] = Side effects of inhaled vasoactive intestinal peptide in previous trials; assay type: in vivo, human
Patients with SARS-CoV-2 = test: Study of aviptadil inhalation versus placebo in CoViD-19 patients; assay type: in vivo, human; conditions: during treatment, 28 days inhalative
Text: A study examines the positive effect of aviptadil inhalation (dosage example 17) in CoViD-19 patients.
Patients with SARS-CoV-2 are randomized into two groups, one with 28 days aviptadil inhalative, one with 28 days placebo inhalative.

[5] = tested on: pulmonary arterial hypertension (PAH); test: Case: inhaled Aviptadil in a patient with severe pulmonary arterial hypertension; assay type: in vivo, human
Procedure: A patient with severe pulmonary arterial hypertension (PAH), associated with collagen vascular disease, presented with signs of right ventricular decompensation, with an initial pulmonary vascular resistance (PVR) of 1413 dyn s cm^−5. The patient was treated before with bosentan for 3 months. This therapy was discontinued due to increased liver enzymes. PAH-specific medication was changed to triple therapy comprising inhaled iloprost and systemic sildenafil and ambrisentan. The patient developed peripheral edema, right ventricular hypertrophy, right ventricular systolic pressure (RVSP) 97 mm Hg, TAPSE (tricuspid annular plane systolic excursion) 17 mm, 6 min walking test 290 m. A repeated prostanoid therapy was refused by the patient. Due to the lack of other treatment options, treatment with inhaled Aviptadil was initiated at a dose of 4×140 μg/ml per day (560 μg/day) with overnight break, droplet characteristics of a MMAD of 3.4 μm per emitted particle (nebulizer: M-neb-dose+, NEBU-TEC, Eisenfeld, Germany). 90% of the dose were delivered at the mouthpiece (SK-211, NEBU-TEC, Eisenfeld, Germany). Inhalation time per treatment was 12 minutes. […] 6 months later the 6 min walking test was increased to 340 m, 12 months later to 410 m. 3 years later an ongoing improvement was noted, with 6 min walking distances between 430-475 m and still persistent PAH, but good right ventricular function of TAPSE 22 mm. This dramatic improvement of the patient over time is attributed to the effect of inhaled Aviptadil.

[6] = tested on: CoViD-19 infected patients at risk for ARDS; conditions: human, in vivo
[7] = tested on: PBMCs stimulated with beryllium; test: Case: inhaled Aviptadil in a patient with Chronic Beryllium Disease, PBMC proliferation and cytokines; assay type: in vivo, human; conditions: after 6 months of treatment
Text: A patient who was continuously exposed to beryllium at their workplace developed Chronic Beryllium Disease (CBD). This was diagnosed by tests performed on peripheral blood and bronchoalveolar lavage (BAL) mononuclear cells. […] A test called beryllium lymphocyte proliferation test (BeLPT) confirmed the CBD diagnosis. Due to the lack of available treatment options for CBD, the patient qualified for the Early Access Program treatment with inhaled Aviptadil. Therapy was initiated at a dose of 4×70 μg/ml per day dosage (280 μg per day with overnight break; nebulizer: M-neb-dose+, NEBU-TEC, Eisenfeld, Germany; mouthpiece; SK-211, NEBU-TEC, Eisenfeld, Germany). After 6 months of treatment, the proliferation rate of PBMCs stimulated with beryllium (0.1 mM) from the patient was inhibited by 100% by Aviptadil.

sarcoidosis of the lung = test: Case: inhaled Aviptadil in a patient with severe sarcoidosis of the lung (KSQ); assay type: in vivo, human; conditions: for King's College Sarcoidosis Questionnaire (KSQ) score: 280 μg per day inhaled
Procedure: A patient with severe sarcoidosis of the lung indicated for therapeutic treatment suffered from unproductive chronic cough, dyspnea on exertion and chronic fatigue. […] Therapy was initiated at a dose of 4×70 μg/ml per day dosage (280 μg per day with overnight break; nebulizer: M-neb-dose+, NEBU-TEC, Eisenfeld, Germany; mouthpiece; SK-211, NEBU-TEC, Eisenfeld, Germany). Therapeutic benefit was measured by the newly established and well validated quality of life questionnaire for sarcoidosis, the King's College Sarcoidosis Questionnaire (KSQ; Patel et al. (2013) Thorax 68: 57-65). Therein an increase in score by 5 over time indicates significant clinical improvement. The patient started treatment at a score of 66, improved after 3 months of treatment to score 71, and after 6 months of treatment to score 77, which is 11 points higher than at beginning of treatment with Aviptadil.

[8] = 0.1 mg/ml in physiological saline
[9] = estimated values with 25 l/min Highflow with oxygen from 72 to 44%
[10] = oxygen nasal cannula, 3×66 μg daily, one table line per patient
[11] = oxygen nasal cannula, 3×66 μg daily, one table line per patient, listed as Aviptadil

## CC[C@H](C)[C@H](NC(=O)[C@H](CO)NC(=O)[C@H](CC(N)=O)NC(=O)[C@H](CC(C)C)NC(=O)[C@H](Cc1ccc(O)cc1)NC(=O)[C@H](CCCCN)NC(=O)[C@H](CCCCN)NC(=O)[C@@H](NC(=O)[C@H](C)NC(=O)[C@H](CCSC)NC(=O)[C@H](CCC(N)=O)NC(=O)[C@H](CCCCN)NC(=O)[C@H](CCCNC(=N)N)NC(=O)[C@H](CC(C)C)NC(=O)[C@H](CCCNC(=N)N)NC(=O)[C@@H](NC(=O)[C@H](Cc1ccc(O)cc1)NC(=O)[C@H](CC(N)=O)NC(=O)[C@H](CC(=O)O)NC(=O)[C@@H](NC(=O)[C@H](Cc1ccccc1)NC(=O)[C@@H](NC(=O)[C@H](C)NC(=O)[C@H](CC(=O)O)NC(=O)[C@H](CO)NC(=O)[C@@H](N)Cc1c[nH]cn1)C(C)C)[C@@H](C)O)[C@@H](C)O)C(C)C)C(=O)N[C@@H](CC(C)C)C(=O)N[C@@H](CC(N)=O)C(N)=O [vasoactive intestinal peptide]
[1]
  dose delivered at the mouthpiece, of the tested dosages: 90.2%
[1]; 35 to 400 μg/ml in 0.9% NaCl
  linearity of aerosol output rates at the mouthpiece over increasing numbers of breathing cycles: excellent linearity
[1]; dissolved in 0.9% NaCl
  mass median aerodynamic diameter (MMD) per emitted particle: 3.3-3.5 μm
  number of particles <5 μm: 85.70%
ARDS; some of the patients
  systemic side effects: hypotension
ARDS; trial discontinued
  effect on ARDS: lack of positive effect
[2]; [8]
  MMAD: 3.40 μm
  released dosage at the mouthpiece as share of the nominal value: 80%
[2]; 0.1 mg/ml in physiological saline, at the mouthpiece
  released dosage: 0.08 mg
[2]; Example 11, 140 μg/ml, M-neb-dose+
  MMAD per emitted particle: 3.4 μm
[2]; Example 11, mouthpiece SK-211
  dose delivered at the mouthpiece: 90%
[2]; corresponds to 30 strokes/breaths
  time of aerosol release: 3 min
CoViD-19; [9]
  O2 Day 1: 15* l/min
  O2 Day 2: 15* l/min
  O2 Day 3: 14* l/min
  O2 Day 4: 11* l/min
  O2 Day 5: 6* l/min
  O2 Day 6: 6* l/min
CoViD-19; [10]
  O2 Day 11: 6 L/min
  O2 Day 12: 3.3 L/min
  O2 Day 13: 2 L/min
  O2 Day 14: 1.5 L/min
  O2 Day 15: 1 L/min
  O2 Day 16: 0.5 L/min
  O2 Day 17: 0 L/min
CoViD-19; [11]
  O2 Day 1: 5 L/min and 3 L/min and 2 L/min and 1.5 L/min
  O2 Day 2: 4 l/min and 3 l/min (2×) and 2 l/min
  O2 Day 3: 6 l/min and 4 l/min and 3 l/min (2×) and 2 l/min
  O2 Day 4: 5 l/min and 4 l/min and 2 l/min (3×)
  O2 Day 5: 4 l/min and 3 l/min and 1 l/min (2×) and 0 l/min
  O2 Day 6: 3 l/min and 2 l/min (2×) and 0 l/min
  O2 Day 7: 2 l/min (2×) and 1 l/min and 4 l/min
  O2 Day 8: 0 l/min and 1 l/min (2×) and 5.5 l/min
  O2 Day 9: 1 l/min (2×) and 4.7 l/min
  O2 Day 10: 0 l/min (2×) and 5.5 l/min
[3]
  half-life in blood: about 2 minutes
[4]
  side effects found with systemic administration: lacks the side effects; also recorded: lacks these side effects
Patients with SARS-CoV-2
  T-cells expressing CD28 promoting inflammation: diminished
  TNF release in the lung: diminished
  regulatory T-cells dampening inflammation: increased
[5]; 560 μg/day inhaled
  clinical course: gradual improvement
[5]; 3 years later
  6 min walking distances: 430-475 m
[5]; 3 years later, 17 mm before
  TAPSE: 22 mm
[5]; 6 months later, 560 μg/day inhaled, 290 m before
  6 min walking test: 340 m
[5]; 12 months later, 560 μg/day inhaled
  6 min walking test: 410 m
[6]
  Arterio-alveolar oxygen difference (AaDO2): lower
  need of oxygen supplementation: lower need of oxygen supplementation
  oxygenation (SpO2/FiO2 quotient): better oxygenation
  rate of progression to ARDS: reduced rate of progression to ARDS
  respiratory rate: decrease of respiratory rate
[7]
  production of cytokines TNF-alpha, IL-17: significantly diminished
Sarcoidosis of the lung; after 3 months, score 66 at start
  King's College Sarcoidosis Questionnaire (KSQ) score: 71
Sarcoidosis of the lung; after 6 months
  KSQ score higher than at beginning of treatment: 11 points
  King's College Sarcoidosis Questionnaire (KSQ) score: 77
